Target: T1, mouse P2RX7 (mP2RX7) (Mus musculus, UniProt Q9Z1M0)
T1 construct: expressed in transfected cells; host or cells: HEK cells
T1 sequence (Q9Z1M0 1-595): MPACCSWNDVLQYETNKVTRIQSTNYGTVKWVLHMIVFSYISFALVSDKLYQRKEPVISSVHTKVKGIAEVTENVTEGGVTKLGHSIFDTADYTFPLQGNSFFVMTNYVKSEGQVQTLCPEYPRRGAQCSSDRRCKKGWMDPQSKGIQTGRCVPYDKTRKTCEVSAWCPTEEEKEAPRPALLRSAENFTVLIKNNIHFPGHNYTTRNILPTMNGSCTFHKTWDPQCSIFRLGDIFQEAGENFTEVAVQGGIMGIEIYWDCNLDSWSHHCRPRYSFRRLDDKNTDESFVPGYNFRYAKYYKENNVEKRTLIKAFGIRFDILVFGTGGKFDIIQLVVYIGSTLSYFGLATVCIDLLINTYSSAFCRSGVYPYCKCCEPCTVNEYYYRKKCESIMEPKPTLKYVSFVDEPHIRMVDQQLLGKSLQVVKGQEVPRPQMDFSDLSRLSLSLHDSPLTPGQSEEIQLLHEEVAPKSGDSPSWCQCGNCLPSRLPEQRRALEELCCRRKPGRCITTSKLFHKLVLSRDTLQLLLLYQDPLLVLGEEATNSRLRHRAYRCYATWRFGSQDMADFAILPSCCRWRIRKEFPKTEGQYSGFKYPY
Assay: Channel activity (Fluo4-AM) and large pore opening (Topro3) by flow cytometry, HEK cells expressing mP2RX7, 1 h BzATP
Assay type: cell-based
Description: Calcium channel activity (Fluo4AM probe) and large pore opening (Topro3 probe) were analysed by FACS on mP2RX7 HEK cells. Cells were non stimulated (NS) or treated with BzATP (500 μM) alone or in the presence of HEI2314, HEI2328, HEI2333 or HEI2336 (used at 50 μM).
Calcium channel activity (Fluo4AM probe) and large pore opening (Topro3 probe) were analysed by FACS on mock and mP2RX7 HEK cells. Cells were non stimulated (NS) or treated with BzATP (500 μM) alone or in the presence of HEI2328 used at 50 μM.
2.1. […] Cation channel activity is assayed with the Fluo4 AM (Invitrogen) probe and opening of large pore with Topro3 (Invitrogen). In each experiment 2×10^6 cells were incubated with 50 nM Fluo4-AM for 30 minutes. After washing, cells were treated with 500 μM BzATP (3′-O-(4-benzoyl)benzoyl ATP) for 1 h, or non-treated, in presence of the compounds of the invention at 50 μM. When indicated, the Topro3 probe (8.5 nM) was added during the 1 h stimulation time. Fluorescence was assayed by flow cytometry.

[1] = cells expressing mP2RX7, BzATP 500 μM

| Topro3 positive cells (BzATP 500 μM only, 1 h, mP2RX7 cells) [%] | activity in Mock cells (Mock HEK cells (no P2X receptors)) | increase of Ca2+ entry [1] [fold] | increase of large pore opening [1] [fold] | Compound | Topro3 entry (large pore opening) (compound 50 μM, BzATP 500 μM, 1 h, mP2RX7 HEK cells) |
| --- | --- | --- | --- | --- | --- |
| 24.7 | inactive | 15 | 4 | Nc1ncnc2c1ncn2[C@@H]1O[C@H](COP(=O)(O)OP(=O)(O)OP(=O)(O)O)[C@@H](OC(=O)c2ccc(C(=O)c3ccccc3)cc2)[C@H]1O [BzATP, 3′-O-(4-benzoyl)benzoyl ATP, reference compound] |  |
|  |  |  |  | O=C(NCc1ccc(Cl)cc1Cl)[C@@H]1CCC(=O)N1C(=O)Nc1ccccc1Cl [HEI2314, (S)—N^1-(2-Chlorophenyl)-N^2-(2,4-dichlorobenzyl)-5-oxopyrrolidine-1,2-dicarboxamide] | increase Topro3 entry only in presence of BzATP |

Source: patent publication US11919854B2, “P2RX7 modulators in therapy” (Centre national de la recherche scientifique, priority 2018, dated 2024)
